Key:
[1] = biological target: Mitogen-activated protein kinase 6 (Homo sapiens) (UniProt Q16659); conditions: Compound concentration 100.0 nM
[2] = biological target: MAP kinase-activated protein kinase 5 (Homo sapiens) (UniProt Q8IW41); conditions: Compound concentration 100.0 nM
[3] = biological target: Activated CDC42 kinase 1 (Homo sapiens) (UniProt Q07912); conditions: Compound concentration 100.0 nM
[4] = biological target: Protein-tyrosine kinase 2-beta (Homo sapiens) (UniProt Q14289); conditions: Compound concentration 100.0 nM
[5] = test system: Proto-oncogene tyrosine-protein kinase receptor Ret (Homo sapiens), P07949 [V804L]; conditions: Compound concentration 100.0 nM
Sequence of Proto-oncogene tyrosine-protein kinase receptor Ret (Homo sapiens), P07949 [V804L] (P07949 whole entry V804L): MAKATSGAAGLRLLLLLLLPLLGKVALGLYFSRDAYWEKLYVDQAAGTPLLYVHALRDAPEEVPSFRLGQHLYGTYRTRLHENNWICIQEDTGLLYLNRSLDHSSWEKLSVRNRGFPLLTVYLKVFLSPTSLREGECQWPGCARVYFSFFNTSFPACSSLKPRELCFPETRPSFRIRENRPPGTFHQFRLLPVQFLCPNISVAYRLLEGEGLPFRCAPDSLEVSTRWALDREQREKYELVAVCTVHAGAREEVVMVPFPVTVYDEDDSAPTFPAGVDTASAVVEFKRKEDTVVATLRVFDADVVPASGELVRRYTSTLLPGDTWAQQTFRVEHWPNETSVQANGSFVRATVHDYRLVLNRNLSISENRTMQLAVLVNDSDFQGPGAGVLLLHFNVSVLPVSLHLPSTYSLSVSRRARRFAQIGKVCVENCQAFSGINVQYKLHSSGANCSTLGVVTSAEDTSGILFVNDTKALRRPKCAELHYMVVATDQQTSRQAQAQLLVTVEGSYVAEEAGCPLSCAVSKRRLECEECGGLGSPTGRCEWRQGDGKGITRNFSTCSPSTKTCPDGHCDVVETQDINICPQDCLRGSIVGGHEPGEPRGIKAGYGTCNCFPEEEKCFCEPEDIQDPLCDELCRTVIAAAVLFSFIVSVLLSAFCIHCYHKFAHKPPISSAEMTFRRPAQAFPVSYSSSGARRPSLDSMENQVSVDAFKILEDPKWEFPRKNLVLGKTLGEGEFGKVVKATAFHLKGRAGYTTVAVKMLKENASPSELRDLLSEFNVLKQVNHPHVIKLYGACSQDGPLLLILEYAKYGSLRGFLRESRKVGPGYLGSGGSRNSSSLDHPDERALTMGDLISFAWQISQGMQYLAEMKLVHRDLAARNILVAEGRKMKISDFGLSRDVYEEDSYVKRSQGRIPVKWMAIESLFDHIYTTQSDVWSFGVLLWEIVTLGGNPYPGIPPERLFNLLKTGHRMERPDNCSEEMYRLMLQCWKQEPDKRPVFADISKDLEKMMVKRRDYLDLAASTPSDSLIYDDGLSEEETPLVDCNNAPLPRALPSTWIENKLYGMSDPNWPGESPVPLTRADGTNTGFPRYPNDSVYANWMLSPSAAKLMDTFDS

[6] = test system: Epidermal growth factor receptor (Homo sapiens), P00533 [L861Q]; conditions: Compound concentration 100.0 nM
[7] = biological target: Phosphorylase b kinase gamma catalytic chain, skeletal muscle/heart isoform (Homo sapiens) (UniProt Q16816); conditions: Compound concentration 100.0 nM
[8] = test system: Receptor-type tyrosine-protein kinase FLT3 (Homo sapiens), P36888 [UNDEFINED MUTATION]; conditions: Compound concentration 100.0 nM
[9] = biological target: Ephrin type-B receptor 4 (Homo sapiens) (UniProt P54760); conditions: Compound concentration 100.0 nM
[10] = biological target: Serine/threonine-protein kinase Nek6 (Homo sapiens) (UniProt Q9HC98); conditions: Compound concentration 100.0 nM
[11] = biological target: STE20/SPS1-related proline-alanine-rich protein kinase (Homo sapiens) (UniProt Q9UEW8); conditions: Compound concentration 100.0 nM
[12] = biological target: Mitogen-activated protein kinase kinase kinase 1 (Homo sapiens) (UniProt Q13233); conditions: Compound concentration 100.0 nM
Sequence of Mitogen-activated protein kinase kinase kinase 1 (Homo sapiens) (Q13233 whole entry): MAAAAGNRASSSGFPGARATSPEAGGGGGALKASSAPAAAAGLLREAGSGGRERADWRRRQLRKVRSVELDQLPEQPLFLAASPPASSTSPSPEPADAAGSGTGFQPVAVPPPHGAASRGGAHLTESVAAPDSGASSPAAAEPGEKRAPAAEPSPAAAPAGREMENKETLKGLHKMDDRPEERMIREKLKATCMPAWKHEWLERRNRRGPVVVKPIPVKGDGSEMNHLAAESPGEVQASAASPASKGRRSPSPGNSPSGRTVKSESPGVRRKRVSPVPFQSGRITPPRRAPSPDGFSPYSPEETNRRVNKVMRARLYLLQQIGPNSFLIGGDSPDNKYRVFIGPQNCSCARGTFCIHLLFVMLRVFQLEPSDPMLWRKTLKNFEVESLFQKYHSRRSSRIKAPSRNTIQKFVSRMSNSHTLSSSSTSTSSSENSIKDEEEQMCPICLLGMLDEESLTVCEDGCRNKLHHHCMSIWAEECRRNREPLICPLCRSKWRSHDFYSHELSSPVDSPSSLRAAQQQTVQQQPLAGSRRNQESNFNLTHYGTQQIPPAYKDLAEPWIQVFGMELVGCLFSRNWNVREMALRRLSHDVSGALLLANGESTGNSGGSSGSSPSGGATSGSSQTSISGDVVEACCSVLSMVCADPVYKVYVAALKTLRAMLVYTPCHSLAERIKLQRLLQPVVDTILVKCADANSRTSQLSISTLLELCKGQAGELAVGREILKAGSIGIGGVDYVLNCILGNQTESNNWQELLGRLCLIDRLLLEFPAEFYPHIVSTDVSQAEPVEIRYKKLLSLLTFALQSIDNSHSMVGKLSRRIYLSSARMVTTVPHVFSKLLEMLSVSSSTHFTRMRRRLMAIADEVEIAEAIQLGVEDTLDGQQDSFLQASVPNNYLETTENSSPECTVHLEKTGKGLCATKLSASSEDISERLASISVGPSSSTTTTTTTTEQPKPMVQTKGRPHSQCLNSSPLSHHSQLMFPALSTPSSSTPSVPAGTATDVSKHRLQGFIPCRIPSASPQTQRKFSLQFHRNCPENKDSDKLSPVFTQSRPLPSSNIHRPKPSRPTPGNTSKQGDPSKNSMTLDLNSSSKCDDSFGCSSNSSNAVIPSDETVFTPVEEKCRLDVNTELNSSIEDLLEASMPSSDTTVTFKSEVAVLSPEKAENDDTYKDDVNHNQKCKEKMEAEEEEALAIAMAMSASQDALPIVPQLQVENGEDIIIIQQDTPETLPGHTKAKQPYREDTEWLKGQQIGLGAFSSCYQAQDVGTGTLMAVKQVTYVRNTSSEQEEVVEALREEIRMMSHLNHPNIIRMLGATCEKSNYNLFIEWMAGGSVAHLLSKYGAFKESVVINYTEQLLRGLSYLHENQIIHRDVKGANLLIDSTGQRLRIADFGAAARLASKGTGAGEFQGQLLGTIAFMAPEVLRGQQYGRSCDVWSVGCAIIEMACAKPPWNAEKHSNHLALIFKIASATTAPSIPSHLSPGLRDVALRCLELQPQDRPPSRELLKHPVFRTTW

[13] = biological target: cGMP-dependent protein kinase 2 (Homo sapiens) (UniProt Q13237); conditions: Compound concentration 100.0 nM
[14] = biological target: Serine/threonine-protein kinase 36 (Homo sapiens) (UniProt Q9NRP7); conditions: Compound concentration 100.0 nM
[15] = biological target: Serine/threonine-protein kinase pim-1 (Homo sapiens) (UniProt P11309); conditions: Compound concentration 100.0 nM
[16] = biological target: Tyrosine-protein kinase ITK/TSK (Homo sapiens) (UniProt Q08881); conditions: Compound concentration 100.0 nM
[17] = biological target: Serine/threonine-protein kinase 17A (Homo sapiens) (UniProt Q9UEE5); conditions: Compound concentration 100.0 nM
[18] = biological target: Mitogen-activated protein kinase 12 (Homo sapiens) (UniProt P53778); conditions: Compound concentration 100.0 nM
Sequence of Mitogen-activated protein kinase 12 (Homo sapiens) (P53778 whole entry): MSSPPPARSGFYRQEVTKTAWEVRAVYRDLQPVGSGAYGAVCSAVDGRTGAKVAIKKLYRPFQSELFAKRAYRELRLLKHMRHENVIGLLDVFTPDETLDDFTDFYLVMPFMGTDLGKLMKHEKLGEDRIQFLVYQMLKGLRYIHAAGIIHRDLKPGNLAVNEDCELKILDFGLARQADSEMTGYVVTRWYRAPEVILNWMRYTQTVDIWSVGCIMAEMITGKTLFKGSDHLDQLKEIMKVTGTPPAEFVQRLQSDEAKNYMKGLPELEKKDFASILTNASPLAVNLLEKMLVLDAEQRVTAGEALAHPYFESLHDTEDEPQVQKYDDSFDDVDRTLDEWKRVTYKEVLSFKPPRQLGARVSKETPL

[19] = biological target: Ribosomal protein S6 kinase alpha-3 (Homo sapiens) (UniProt P51812); conditions: Compound concentration 100.0 nM
[20] = biological target: Serine/threonine-protein kinase tousled-like 1 (Homo sapiens) (UniProt Q9UKI8); conditions: Compound concentration 100.0 nM
[21] = test system: Epidermal growth factor receptor (Homo sapiens), P00533 [G719S]; conditions: Compound concentration 100.0 nM
[22] = biological target: Mitogen-activated protein kinase kinase kinase 11 (Homo sapiens) (UniProt Q16584); conditions: Compound concentration 100.0 nM
[23] = test system: Hepatocyte growth factor receptor (Homo sapiens), P08581 [Y1235D]; conditions: Compound concentration 100.0 nM
[24] = biological target: Phosphatidylinositol 3-kinase catalytic subunit type 3 (Homo sapiens) (UniProt Q8NEB9); conditions: Compound concentration 100.0 nM
[25] = test system: Epidermal growth factor receptor (Homo sapiens), P00533 [L858R]; conditions: Compound concentration 100.0 nM
[26] = biological target: Fibroblast growth factor receptor 3 (Homo sapiens) (UniProt P22607); conditions: Compound concentration 100.0 nM
[27] = biological target: Insulin-like growth factor 1 receptor (Homo sapiens) (UniProt P08069); conditions: Compound concentration 100.0 nM
[28] = biological target: Platelet-derived growth factor receptor alpha (Homo sapiens) (UniProt P16234); conditions: Compound concentration 100.0 nM
[29] = biological target: Mitogen-activated protein kinase 9 (Homo sapiens) (UniProt P45984); conditions: Compound concentration 100.0 nM
Sequence of Mitogen-activated protein kinase 9 (Homo sapiens) (P45984 whole entry, looked up): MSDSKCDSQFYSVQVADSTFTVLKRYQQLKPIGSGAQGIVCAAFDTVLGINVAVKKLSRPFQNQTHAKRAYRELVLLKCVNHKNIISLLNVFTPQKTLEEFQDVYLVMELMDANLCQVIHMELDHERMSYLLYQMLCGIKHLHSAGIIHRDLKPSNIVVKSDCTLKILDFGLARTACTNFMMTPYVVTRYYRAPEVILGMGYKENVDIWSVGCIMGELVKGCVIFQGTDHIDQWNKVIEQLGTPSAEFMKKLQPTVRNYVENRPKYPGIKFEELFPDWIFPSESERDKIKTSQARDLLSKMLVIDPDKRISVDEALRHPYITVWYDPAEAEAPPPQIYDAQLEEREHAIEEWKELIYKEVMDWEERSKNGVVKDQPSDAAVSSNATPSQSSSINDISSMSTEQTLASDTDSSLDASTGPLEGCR

[30] = biological target: Serine/threonine-protein kinase PAK 2 (Homo sapiens) (UniProt Q13177); conditions: Compound concentration 100.0 nM
[31] = biological target: Serine/threonine-protein kinase ICK (Homo sapiens) (UniProt Q9UPZ9); conditions: Compound concentration 100.0 nM
[32] = biological target: Serine/threonine-protein kinase 4 (Homo sapiens) (UniProt Q13043); conditions: Compound concentration 100.0 nM
[33] = biological target: Serine/threonine-protein kinase MRCK beta (Homo sapiens) (UniProt Q9Y5S2); conditions: Compound concentration 100.0 nM
[34] = biological target: MAP kinase-interacting serine/threonine-protein kinase 1 (Homo sapiens) (UniProt Q9BUB5); conditions: Compound concentration 100.0 nM
[35] = biological target: Serine/threonine-protein kinase MRCK gamma (Homo sapiens) (UniProt Q6DT37); conditions: Compound concentration 100.0 nM
[36] = biological target: Serine/threonine-protein kinase MRCK alpha (Homo sapiens) (UniProt Q5VT25); conditions: Compound concentration 100.0 nM
[37] = biological target: Mitogen-activated protein kinase kinase kinase 7 (Homo sapiens) (UniProt O43318); conditions: Compound concentration 100.0 nM
[38] = test system: Phosphatidylinositol 4,5-bisphosphate 3-kinase catalytic subunit alpha isoform (Homo sapiens), P42336 [C420R]; conditions: Compound concentration 100.0 nM
[39] = biological target: BMP-2-inducible protein kinase (Homo sapiens) (UniProt Q9NSY1); conditions: Compound concentration 100.0 nM
[40] = biological target: Inhibitor of nuclear factor kappa-B kinase subunit epsilon (Homo sapiens) (UniProt Q14164); conditions: Compound concentration 100.0 nM
[41] = biological target: High affinity nerve growth factor receptor (Homo sapiens, UniProt P04629); conditions: Compound concentration 100.0 nM
[42] = biological target: Leucine-rich repeat serine/threonine-protein kinase 2 (Homo sapiens) (UniProt Q5S007); conditions: Compound concentration 100.0 nM
[43] = biological target: Activin receptor type-2A (Homo sapiens) (UniProt P27037); conditions: Compound concentration 100.0 nM
Sequence of Activin receptor type-2A (Homo sapiens) (P27037 whole entry): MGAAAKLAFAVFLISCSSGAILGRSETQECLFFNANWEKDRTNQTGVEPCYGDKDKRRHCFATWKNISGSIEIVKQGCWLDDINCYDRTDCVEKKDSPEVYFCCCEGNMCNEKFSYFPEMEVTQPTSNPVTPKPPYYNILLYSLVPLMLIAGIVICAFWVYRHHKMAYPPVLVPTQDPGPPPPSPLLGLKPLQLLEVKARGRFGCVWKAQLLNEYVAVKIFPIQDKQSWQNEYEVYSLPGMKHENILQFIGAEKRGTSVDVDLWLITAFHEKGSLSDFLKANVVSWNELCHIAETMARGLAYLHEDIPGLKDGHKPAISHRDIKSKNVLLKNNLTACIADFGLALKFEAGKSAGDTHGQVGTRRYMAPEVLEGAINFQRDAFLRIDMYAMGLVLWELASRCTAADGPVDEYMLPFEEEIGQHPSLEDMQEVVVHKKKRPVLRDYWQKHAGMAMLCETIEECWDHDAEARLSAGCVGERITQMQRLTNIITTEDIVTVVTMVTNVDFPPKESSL

[44] = biological target: Muscarinic acetylcholine receptor M2 (Homo sapiens) (UniProt P08172); conditions: Compound concentration 10.0 uM
[45] = test system: Tyrosine-protein kinase ABL1 (Homo sapiens), P00519 [M351T]; conditions: Compound concentration 100.0 nM

Sequence of Activated CDC42 kinase 1 (Homo sapiens) (Q07912 whole entry, looked up): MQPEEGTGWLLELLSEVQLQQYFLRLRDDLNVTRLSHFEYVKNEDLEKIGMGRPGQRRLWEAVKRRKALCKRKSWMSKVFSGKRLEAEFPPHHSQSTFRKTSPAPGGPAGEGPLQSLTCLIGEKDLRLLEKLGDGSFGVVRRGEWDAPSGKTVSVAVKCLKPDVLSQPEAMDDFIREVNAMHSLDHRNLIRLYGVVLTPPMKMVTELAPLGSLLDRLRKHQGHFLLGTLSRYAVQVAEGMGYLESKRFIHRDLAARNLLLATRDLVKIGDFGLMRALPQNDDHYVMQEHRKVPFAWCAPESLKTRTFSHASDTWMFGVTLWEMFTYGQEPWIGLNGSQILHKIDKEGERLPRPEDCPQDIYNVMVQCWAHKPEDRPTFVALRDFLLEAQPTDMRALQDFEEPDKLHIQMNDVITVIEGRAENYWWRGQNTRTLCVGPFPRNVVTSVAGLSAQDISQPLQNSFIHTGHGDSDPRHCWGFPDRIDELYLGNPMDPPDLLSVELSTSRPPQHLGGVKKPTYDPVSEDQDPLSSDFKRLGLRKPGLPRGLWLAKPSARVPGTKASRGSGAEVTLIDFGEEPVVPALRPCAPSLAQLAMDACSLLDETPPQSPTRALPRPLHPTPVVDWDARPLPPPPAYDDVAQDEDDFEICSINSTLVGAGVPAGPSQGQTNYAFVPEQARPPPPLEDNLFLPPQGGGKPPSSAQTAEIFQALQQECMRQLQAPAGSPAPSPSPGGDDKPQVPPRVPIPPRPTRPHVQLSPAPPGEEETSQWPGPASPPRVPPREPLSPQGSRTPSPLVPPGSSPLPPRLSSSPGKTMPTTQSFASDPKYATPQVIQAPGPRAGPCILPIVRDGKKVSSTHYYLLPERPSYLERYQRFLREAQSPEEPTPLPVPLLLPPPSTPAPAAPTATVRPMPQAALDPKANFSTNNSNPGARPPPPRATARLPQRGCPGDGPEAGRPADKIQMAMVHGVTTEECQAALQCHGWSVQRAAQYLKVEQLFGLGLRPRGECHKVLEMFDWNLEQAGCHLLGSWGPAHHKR

Cc1ccc(-c2cnc([C@@]3(O)CC[C@H](C(=O)O)C(C)(C)C3)s2)cc1Nc1cccc(C(F)(F)F)n1 [MRL-SYKi-NC]
residual activity [1]: 100% | residual activity [2]: 97.7% | residual activity [3]: 100% | residual activity [4]: 72.5% | residual activity [5]: 100% | residual activity [6]: 98.5% | residual activity [7]: 100% | residual activity [8]: 100% | residual activity [9]: 100% | residual activity [10]: 89.7% | residual activity [11]: 100% | residual activity [12]: 96% | residual activity [13]: 69.9% | residual activity [14]: 95.5% | residual activity [15]: 100% | residual activity [16]: 94.7% | residual activity [17]: 96.7% | residual activity [18]: 98.8% | residual activity [19]: 93% | residual activity [20]: 100% | residual activity [21]: 99.3% | residual activity [22]: 100% | residual activity [23]: 77.3% | residual activity [24]: 67.2% | residual activity [25]: 76.6% | residual activity [26]: 100% | residual activity [27]: 100% | residual activity [28]: 92.6% | residual activity [29]: 45.3% | residual activity [30]: 89.5% | residual activity [31]: 91.7% | residual activity [32]: 69.1% | residual activity [33]: 91.6% | residual activity [34]: 75% | residual activity [35]: 100% | residual activity [36]: 100% | residual activity [37]: 92.6% | residual activity [38]: 85.3% | residual activity [39]: 100% | residual activity [40]: 73.8% | residual activity [41]: 64.5% | residual activity [42]: 87.4% | residual activity [43]: 96.9% | inhibition [44]: 23% | residual activity [45]: 87%

Cc1cc(Nc2nccc(C)n2)cc(-c2cnc([C@@]3(O)CC[C@H](C(=O)O)C(C)(C)C3)s2)c1 [MRL-SYKi]
residual activity [1]: 97.9% | residual activity [2]: 100% | residual activity [3]: 100% | residual activity [4]: 100% | residual activity [5]: 87% | residual activity [6]: 100% | residual activity [7]: 100% | residual activity [8]: 84.8% | residual activity [9]: 100% | residual activity [10]: 100% | residual activity [11]: 81.8% | residual activity [12]: 100% | residual activity [13]: 100% | residual activity [14]: 94.5% | residual activity [15]: 91.7% | residual activity [16]: 81% | residual activity [17]: 99.6% | residual activity [18]: 31.2% | residual activity [19]: 87.6% | residual activity [20]: 100% | residual activity [21]: 100% | residual activity [22]: 92.6% | residual activity [23]: 89.9% | residual activity [24]: 99.6% | residual activity [25]: 75.3% | residual activity [26]: 88.2% | residual activity [27]: 100% | residual activity [28]: 100% | residual activity [29]: 100% | residual activity [30]: 100% | residual activity [31]: 65.4% | residual activity [32]: 100% | residual activity [33]: 100% | residual activity [34]: 94.8% | residual activity [35]: 93.6% | residual activity [36]: 86.2% | residual activity [37]: 100% | residual activity [38]: 99.9% | residual activity [39]: 100% | residual activity [40]: 100% | residual activity [41]: 30.2% | residual activity [42]: 87.1% | residual activity [43]: 85.6% | inhibition [44]: 8.6% | residual activity [45]: 78.3%
